Results taken from PubChem BioAssay AID330 (DTP/NCI, 2004).
Values joined by “and” are separate entries in the source; they are usually repeats but may differ in a detail not shown here. Equal entries are not always repeated. Inconclusive results and toxic doses are left out. How the source made its calls: active means survival T/C of 150% or more; inactive means T/C below 125% in these data.

Test system: P388 leukemia ip, CD2F1 mice, survival T/C
Experiment: NCI In Vivo Anticancer Drug Screen. Data for tumor model P388 Leukemia (intraperitoneal) in CD2F1 (CDF1) mice
Settings: endpoint: median survival time, higher = longer survival
Summary of the method: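 Mice carrying the transplanted tumor received test compound or vehicle. Survival was recorded in each group, and the value is the treated-group measurement divided by that of the vehicle-treated control group.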

[1] = dose: 60.0 mg/kg/injection, schedule: Q01DX005 (ip), vehicle: saline with Tween-80
[2] = dose: 120.0 mg/kg/injection, schedule: Q01DX005 (ip), vehicle: saline with Tween-80
[3] = dose: 240.0 mg/kg/injection, schedule: Q01DX005 (ip), vehicle: saline with Tween-80
[4] = dose: 1.56 mg/kg/injection, schedule: Q01DX009 (ip), vehicle: saline with Tween-80
[5] = dose: 6.25 mg/kg/injection, schedule: Q01DX009 (ip), vehicle: saline with Tween-80
[6] = dose: 25.0 mg/kg/injection, schedule: Q01DX009 (ip), vehicle: saline with Tween-80
[7] = dose: 200.0 mg/kg/injection, schedule: Q01DX009 (ip), vehicle: saline with Tween-80
[8] = dose: 50.0 mg/kg/injection, schedule: Q01DX005 (ip), vehicle: saline with Tween-80
[9] = dose: 100.0 mg/kg/injection, schedule: Q01DX005 (ip), vehicle: saline with Tween-80
[10] = dose: 200.0 mg/kg/injection, schedule: Q01DX005 (ip), vehicle: saline with Tween-80
[11] = dose: 50.0 mg/kg/injection, schedule: Q01DX005 (ip), vehicle: saline
[12] = dose: 50.0 mg/kg/injection, schedule: Q01DX009 (ip), vehicle: saline with Tween-80
[13] = dose: 100.0 mg/kg/injection, schedule: Q01DX009 (ip), vehicle: saline with Tween-80
[14] = dose: 60.0 mg/kg/injection, schedule: Q01DX005 (ip), vehicle: saline
[15] = dose: 3.13 mg/kg/injection, schedule: Q01DX009 (ip), vehicle: saline with Tween-80

Measured: T/C

COC(=O)[C@@]12OC[C@]34[C@H]([C@@H](O)[C@@H]1O)[C@@]1(C)[C@H](O)C(=O)C=C(C)[C@@H]1C[C@H]3OC(=O)C(OC(C)=O)[C@@H]24 (stereo not given in full)
inactive: dose: 0.1 micrograms/kg/injection, schedule: Q01DX009 (ip), vehicle: saline + alcohol 96 % of control | dose: 0.2 micrograms/kg/injection, schedule: Q01DX009 (ip), vehicle: saline + alcohol 102 % of control | dose: 0.5 micrograms/kg/injection, schedule: Q01DX009 (ip), vehicle: saline + alcohol 105 % of control | dose: 1.0 micrograms/kg/injection, schedule: Q01DX009 (ip), vehicle: saline + alcohol 93 % of control | dose: 2.0 micrograms/kg/injection, schedule: Q01DX009 (ip), vehicle: saline + alcohol 100 % of control | dose: 4.0 micrograms/kg/injection, schedule: Q01DX009 (ip), vehicle: saline + alcohol 88 % of control

CP(=O)(N/N=C\C(=O)O)c1ccccc1 (stereo not given)
inactive: dose: 12.5 mg/kg/injection, schedule: Q01DX009 (ip), vehicle: other 99 % of control | dose: 25.0 mg/kg/injection, schedule: Q01DX009 (ip), vehicle: other 91 % of control | dose: 50.0 mg/kg/injection, schedule: Q01DX009 (ip), vehicle: other 100 % of control | dose: 100.0 mg/kg/injection, schedule: Q01DX009 (ip), vehicle: other 97 % of control | dose: 200.0 mg/kg/injection, schedule: Q01DX009 (ip), vehicle: other 98 % of control | dose: 400.0 mg/kg/injection, schedule: Q01DX009 (ip), vehicle: other 97 % of control

NS(=O)(=O)c1cc2c(cc1Cl)NC(Cc1ccccc1)NS2(=O)=O (stereo not given)
inactive: [1] 100 % of control | [2] 93 % of control | [3] 93 % of control

c1ccc(-c2nnn(-n3nnc(-c4ccccc4)n3)n2)cc1
inactive: dose: 100.0 mg/kg/injection, schedule: Q04DX003 (ip), vehicle: saline with Tween-80 97 % of control | dose: 200.0 mg/kg/injection, schedule: Q04DX003 (ip), vehicle: saline with Tween-80 100 % of control | dose: 400.0 mg/kg/injection, schedule: Q04DX003 (ip), vehicle: saline with Tween-80 97 % of control

CCOC(=O)c1ccc(NC(=O)Nc2ncccc2C)cc1
inactive: dose: 0.78 mg/kg/injection, schedule: Q01DX009 (ip), vehicle: saline with Tween-80 98 % of control | [4] 103 % of control | [5] 92 % of control | [6] 90 % of control | [7] 89 % of control

O=C(NO)c1coc2ccccc2c1=O
inactive: [1] 101 % of control | [2] 103 % of control

O=C(NNc1c(F)c(F)c(C(F)(F)F)c(F)c1F)c1ccccc1
inactive: dose: 50.0 mg/kg/injection, schedule: Q01DX005 (ip), vehicle: Klucel (hydroxypropylcellulose) (HPC) 98 % of control | dose: 100.0 mg/kg/injection, schedule: Q01DX005 (ip), vehicle: Klucel (hydroxypropylcellulose) (HPC) 100 % of control | dose: 200.0 mg/kg/injection, schedule: Q01DX005 (ip), vehicle: Klucel (hydroxypropylcellulose) (HPC) 91 % of control

COC1OC(C)(C(OC)OC)CCC1C (stereo not given)
inactive: [8] 99 % of control | [9] 94 % of control | [10] 92 % of control

CCCCCCCCCCCCC1C(=O)NCCNCCCNCCNC1=O
inactive: dose: 12.5 mg/kg/injection, schedule: Q01DX005 (ip), vehicle: saline 101 % of control | dose: 25.0 mg/kg/injection, schedule: Q01DX005 (ip), vehicle: saline 97 % of control | [11] 105 % of control

COc1ccc2[nH]c(=O)c(C(C)=O)c(O)c2c1
inactive: [8] 103 % of control | [9] 105 % of control | [10] 101 % of control

CCN(CC)CCNN
inactive: [11] 100 % of control | dose: 100.0 mg/kg/injection, schedule: Q01DX005 (ip), vehicle: saline 100 % of control | dose: 200.0 mg/kg/injection, schedule: Q01DX005 (ip), vehicle: saline 103 % of control

C[Si](C)(C)OSc1ccccc1[N+](=O)[O-]
inactive: dose: 12.5 mg/kg/injection, schedule: Q01DX009 (ip), vehicle: Klucel (hydroxypropylcellulose) (HPC) 121 % of control | [12] 120 % of control | dose: 100.0 mg/kg/injection, schedule: Q01DX009 (ip), vehicle: Klucel (hydroxypropylcellulose) (HPC) 122 % of control | [13] 114 % of control | [7] 115 % of control

NC(CCC(=O)NC(CSCNC(=O)Nc1ccc(Cl)cc1)C(=O)NCC(=O)O)C(=O)O (stereo not given)
inactive: [14] 97 % of control | dose: 120.0 mg/kg/injection, schedule: Q01DX005 (ip), vehicle: saline 97 % of control

COc1cc2c(c(OC)c1OC)C(=O)/C(=C\c1ccccc1)O2
inactive: [15] 105 % of control | [5] 101 % of control and 102 % of control and 95 % of control | dose: 12.5 mg/kg/injection, schedule: Q01DX009 (ip), vehicle: saline with Tween-80 100 % of control and 105 % of control and 114 % of control | [6] 105 % of control and 121 % of control and 93 % of control | [12] 118 % of control and 96 % of control

COc1ccc2c(c1OC)C(=C(Cl)Cl)N1CCc3cc4c(cc3C1=C2C=O)OCO4
inactive: dose: 12.5 mg/kg/injection, schedule: Q01DX005 (ip), vehicle: saline with Tween-80 98 % of control | dose: 25.0 mg/kg/injection, schedule: Q01DX005 (ip), vehicle: saline with Tween-80 92 % of control | [8] 90 % of control and 96 % of control

N#CCc1c(C2(c3ccncc3)OCCO2)[nH]c2ccccc12
inactive: dose: 100.0 mg/kg/injection, schedule: Q01DX001 (ip), vehicle: saline 104 % of control | dose: 200.0 mg/kg/injection, schedule: Q01DX001 (ip), vehicle: saline 113 % of control | dose: 400.0 mg/kg/injection, schedule: Q01DX001 (ip), vehicle: saline 98 % of control

Cc1cc(C)c(CCl)cc1CCl
inactive: dose: 20.0 mg/kg/injection, schedule: Q04DX003 (ip), vehicle: saline with Tween-80 113 % of control | dose: 40.0 mg/kg/injection, schedule: Q04DX003 (ip), vehicle: saline with Tween-80 118 % of control | dose: 80.0 mg/kg/injection, schedule: Q04DX003 (ip), vehicle: saline with Tween-80 90 % of control

CC(C)=C[Si](C)(C)C
inactive: [12] 103 % of control | [13] 110 % of control | [7] 103 % of control

CC(CN(C)C)C(/C=C/c1ccccc1)=N\Nc1ccccc1 (stereo not given)
inactive: dose: 15.0 mg/kg/injection, schedule: Q01DX005 (ip), vehicle: saline 98 % of control | dose: 30.0 mg/kg/injection, schedule: Q01DX005 (ip), vehicle: saline 103 % of control | [14] 99 % of control and 107 % of control

c1ccc([I+]c2ccccc2)cc1
inactive: dose: 0.65 mg/kg/injection, schedule: Q01DX009 (ip), vehicle: saline 95 % of control | dose: 1.25 mg/kg/injection, schedule: Q01DX009 (ip), vehicle: saline sonified 100 % of control | dose: 1.3 mg/kg/injection, schedule: Q01DX009 (ip), vehicle: saline 90 % of control | [4] 103 % of control | dose: 2.5 mg/kg/injection, schedule: Q01DX009 (ip), vehicle: saline sonified 118 % of control | dose: 2.5 mg/kg/injection, schedule: Q01DX009 (ip), vehicle: saline 109 % of control | dose: 2.6 mg/kg/injection, schedule: Q01DX009 (ip), vehicle: saline with Tween-80 106 % of control | dose: 3.13 mg/kg/injection, schedule: Q01DX009 (ip), vehicle: saline sonified 100 % of control | [15] 108 % of control | dose: 3.13 mg/kg/injection, schedule: Q04DX003 (ip), vehicle: saline 100 % of control | dose: 4.0 mg/kg/injection, schedule: Q01DX009 (ip), vehicle: saline with Tween-80 113 % of control | dose: 6.0 mg/kg/injection, schedule: Q01DX009 (ip), vehicle: saline with Tween-80 113 % of control | [5] 122 % of control and 91 % of control | dose: 6.25 mg/kg/injection, schedule: Q04DX003 (ip), vehicle: saline 118 % of control | dose: 12.5 mg/kg/injection, schedule: Q04DX003 (ip), vehicle: saline 118 % of control

O=C(O)CSC(CC(=O)O)C(F)(F)C(F)(F)C(F)(F)F (stereo not given)
inactive: dose: 176.0 mg/kg/injection, schedule: Q04DX003 (ip), vehicle: saline 100 % of control | dose: 264.0 mg/kg/injection, schedule: Q04DX003 (ip), vehicle: saline 95 % of control

C=C(C)C#CC1(O)C=C(OC)C(OC)=CC1=O (stereo not given)
inactive: [1] 105 % of control | [2] 107 % of control | [3] 88 % of control

C=CC(=O)Nc1ccc2c(c1)OCCOCCOCCO2
inactive: [8] 101 % of control | [9] 102 % of control | [10] 100 % of control
